Data reported in ChEMBL document CHEMBL5523682, “The formyl peptide receptors FPR1 and FPR2 as targets for inflammatory disorders: recent advances in the development of small-molecule agonists” (Eur J Med Chem, 2024).

Experiments:
[1] = target: T1, fMet-Leu-Phe receptor (Homo sapiens, UniProt P21462); test: Agonist activity at human FPR1 transfected in CHO cells by cAMP assay; type: functional, cell-based
T1 sequence (P21462 whole entry): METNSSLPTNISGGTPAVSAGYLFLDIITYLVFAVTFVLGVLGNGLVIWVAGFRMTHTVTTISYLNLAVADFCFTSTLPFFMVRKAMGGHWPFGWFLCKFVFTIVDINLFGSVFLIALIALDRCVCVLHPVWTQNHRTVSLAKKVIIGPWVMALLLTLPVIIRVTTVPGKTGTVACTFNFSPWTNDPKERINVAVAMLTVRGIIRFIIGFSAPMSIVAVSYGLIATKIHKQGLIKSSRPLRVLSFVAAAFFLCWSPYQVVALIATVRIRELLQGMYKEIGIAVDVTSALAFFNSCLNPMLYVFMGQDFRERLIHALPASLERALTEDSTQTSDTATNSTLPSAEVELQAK

[2] = target: T2, N-formyl peptide receptor 2 (Homo sapiens, UniProt P25090); test: Agonist activity at FPR2 (unknown origin) in HEK293 cells; type: functional, cell-based
T2 sequence (P25090 whole entry): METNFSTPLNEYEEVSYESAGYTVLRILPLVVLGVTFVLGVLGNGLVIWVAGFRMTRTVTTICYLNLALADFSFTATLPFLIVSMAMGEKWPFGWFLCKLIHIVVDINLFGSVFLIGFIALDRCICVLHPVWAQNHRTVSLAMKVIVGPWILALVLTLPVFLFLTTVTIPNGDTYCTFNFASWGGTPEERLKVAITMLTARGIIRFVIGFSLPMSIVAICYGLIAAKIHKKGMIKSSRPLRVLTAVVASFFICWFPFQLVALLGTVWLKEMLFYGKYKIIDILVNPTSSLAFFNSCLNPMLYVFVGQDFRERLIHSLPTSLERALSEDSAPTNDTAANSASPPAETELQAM

[3] = target: T1, fMet-Leu-Phe receptor; test: Agonist activity at FPR1 (unknown origin) in HEK293 cells; type: functional, cell-based
[4] = target: T2, N-formyl peptide receptor 2; test: Agonist activity at human FPR2 expressed in HL-60 cells assessed as increase in calcium mobilization by FLIPR analysis; type: functional, cell-based
[5] = target: T1, fMet-Leu-Phe receptor; test: Agonist activity at human FPR1 expressed in HL-60 cells assessed as increase in calcium mobilization by FLIPR analysis; type: functional, cell-based
[6] = target: T2, N-formyl peptide receptor 2; test: Agonist activity at FPR2 (unknown origin) expressed in CHO cells by cAMP assay; type: functional, cell-based
[7] = organism: Homo sapiens; test: Selectivity ratio of EC50 for agonist activity at human FPR1 transfected in CHO cells to EC50 for agonist activity at human FPR2 transfected in CHO cells; type: cell-based
[8] = target: T2, N-formyl peptide receptor 2; test: Agonist activity at human FPR2; type: functional
[9] = target: T2, N-formyl peptide receptor 2; test: Agonist activity at FPR2 (unknown origin) transfected in CHO cells by cAMP assay; type: functional, cell-based
[10] = target: T3, fMet-Leu-Phe receptor (Mus musculus, UniProt P33766); test: Agonist activity at mouse FPR1; type: functional
T3 sequence (P33766 whole entry): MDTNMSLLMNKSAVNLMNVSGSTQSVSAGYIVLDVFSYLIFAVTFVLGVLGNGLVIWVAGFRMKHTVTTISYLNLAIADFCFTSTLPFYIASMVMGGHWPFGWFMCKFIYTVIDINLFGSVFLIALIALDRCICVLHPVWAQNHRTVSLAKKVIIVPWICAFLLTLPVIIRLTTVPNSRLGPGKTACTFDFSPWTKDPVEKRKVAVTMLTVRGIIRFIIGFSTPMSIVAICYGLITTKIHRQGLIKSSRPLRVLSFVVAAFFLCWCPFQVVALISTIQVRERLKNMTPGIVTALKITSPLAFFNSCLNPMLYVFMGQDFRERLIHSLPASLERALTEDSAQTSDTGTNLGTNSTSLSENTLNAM

[11] = target: T2, N-formyl peptide receptor 2; test: Agonist activity at human FPR2 expressed in HL-60 cells assessed as inhibition of WKYMVM-induced calcium mobilization; type: functional, cell-based
[12] = target: T4, Formyl peptide receptor 2 (Mus musculus, UniProt O88536); test: Agonist activity at mouse FPR2
T4 sequence (O88536 whole entry): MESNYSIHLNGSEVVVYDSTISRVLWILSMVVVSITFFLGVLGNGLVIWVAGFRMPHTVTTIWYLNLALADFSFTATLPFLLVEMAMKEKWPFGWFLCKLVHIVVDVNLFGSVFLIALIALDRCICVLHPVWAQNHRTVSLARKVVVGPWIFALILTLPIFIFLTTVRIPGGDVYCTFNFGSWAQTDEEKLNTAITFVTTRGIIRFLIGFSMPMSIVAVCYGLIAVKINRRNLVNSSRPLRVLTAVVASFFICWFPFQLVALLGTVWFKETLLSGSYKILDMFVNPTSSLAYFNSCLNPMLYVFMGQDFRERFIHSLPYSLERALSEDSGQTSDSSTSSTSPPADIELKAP

Molecule: COc1cc(C2CCNCC2)nc(-n2c(=O)c(NC(=O)c3ccc(OC(F)F)cc3)c(-c3c(F)cc(OC)cc3F)n2C)c1
- EC50 [1]: > 10000 nM

Molecule: O=C(NCCCCN1CCCCC1)[C@@H]1C2CCC([C@H]1C(=O)Nc1ccc(Br)cc1)C21CC1 (some centres undefined)
- EC50 [2]: 0.07 nM

Molecule: COc1cc(F)c(-n2c(C3CC(N)C3)cnc2NC(=O)c2ccc(OC(F)F)cc2)c(F)c1 (centres undefined)
- EC50 ([3]; hek293): 5400 nM
- EC50 ([2]; hek293): 4 nM

Molecule: C[C@H]1CC(c2ccccc2)=NN(CC(=O)Nc2ccc(Br)cc2)C1=O
- EC50 [4]: 11000 nM
- EC50 [5]: 20000 nM

Molecule: COc1ccc(NC(=O)N[C@@H]2CCCN(c3ccc(-c4ccccc4C(N)=O)cc3)C2=O)cc1
- EC50 [6]: 5 nM

Molecule: N#Cc1ccccc1-c1ccc(N2CC[C@@H](NC(=O)Nc3ccc(Cl)cc3F)C2=O)c(F)c1F
- Ratio EC50 [7]: 14

Molecule: CC/C=C\C[C@@H](O)/C=C/C=C\C[C@@H](O)/C=C/C=C/C=C\[C@@H](O)CCC(=O)O
- EC50 [8]: 1.2 nM

Molecule: COC(=O)c1ccc(NC(=O)CSc2nc3cc(OC)ccc3[nH]2)cc1
- EC50 [3]: 4700 nM

Molecule: COc1ccc(CC(Cc2ccc3c(c2)OCO3)NC(=O)Nc2ccc(Cl)cc2)cc1 (centres undefined)
- EC50 [5]: 110 nM

Molecule: CCOC(=O)[C@H]1C2CCC([C@H]1C(=O)Nc1ccc(Br)cc1)C21CC1 (some centres undefined)
- EC50 [9]: 1400 nM

Molecule: COc1cc(OC)cc(-n2c(=O)c(NC(=O)c3ccc(OC(F)F)cc3)c(-c3c(F)cc(OC)cc3F)n2C)c1
- Ratio EC50 [7]: 3400
- EC50 [1]: 10 nM

Molecule: COc1ccc([C@@H]2COC(=O)[C@@H]2NC(=O)Nc2ccc(Cl)cc2)cc1 (racemic)
- EC50 [6]: 0.25 nM

Molecule: CSCC[C@H](NC=O)C(=O)N[C@@H](CC(C)C)C(=O)N[C@@H](Cc1ccccc1)C(=O)O
- EC50 [10]: 23000 nM

Molecule: NC(=O)c1ccccc1-c1ccc(N2CCC[C@H](NC(=O)Nc3ccc(Cl)cc3)C2=O)cc1
- EC50 [6]: 5 nM

Molecule: COc1cc(F)c(-c2c(NC(=O)c3ccc(OC(F)F)cc3)c(=O)n(-c3ccccn3)n2C)c(F)c1
- Ratio EC50 [7]: > 630
- EC50 [1]: > 10 nM

Molecule: H-AKKVFKRLEKLFSKIQNDK-OH
- EC50 [11]: 300 nM

Molecule: COc1ccc([C@@H]2CN(CCO)C(=O)[C@H]2NC(=O)Nc2ccc(Cl)cc2)cc1
- EC50 [6]: 0.01 nM

Molecule: COc1ccc([C@H]2CN(Cc3cnn(S(C)(=O)=O)c3)CC[C@@H]2NC(=O)Nc2ccc(Cl)cc2)cc1 (racemic)
- EC50 [6]: 0.09 nM

Molecule: COc1ccc(-n2c(-c3ccccc3)cnc2NC(=O)c2ccc(OC(F)F)cc2)cc1
- EC50 [3]: 38 nM
- EC50 [2]: 3 nM

Molecule: COc1cc(-n2c(=O)c(NC(=O)c3ccc(OC(F)F)cc3)c(-c3c(F)cc(OC)cc3F)n2C)cc(C(F)(F)F)c1
- Ratio EC50 [7]: > 1300
- EC50 [1]: > 10 nM

Molecule: COc1cccc(-c2cc(C#N)c(=O)n(CC(=O)Nc3ccc(Br)cc3)c2C)c1
- EC50 ([4]; hl-60): 120 nM
- EC50 ([5]; hl-60): 1600 nM

Molecule: COc1cc(F)c(-c2c(NC(=O)c3ccc(OC(F)F)cc3)c(=O)n(-c3cccc(OC(F)F)c3)n2C)c(F)c1
- Ratio EC50 [7]: 1

Molecule: COc1cc(F)c(-n2c(-c3ccccc3)cnc2NC(=O)c2ccc(OC(F)F)cc2)c(F)c1
- EC50 [3]: 200 nM
- EC50 [2]: 4 nM

Molecule: CS(=O)(=O)c1ccccc1-c1ccc(N2CC[C@@H](NC(=O)Nc3ccc(Cl)cc3F)C2=O)c(F)c1F
- Ratio EC50 [7]: 66

Molecule: O=C(CN1C(=O)C2C(C1=O)C1CCC2C12CC2)Nc1ccc(Br)cc1 (centres undefined)
- EC50 [9]: 120 nM

Molecule: COc1ccc(C2(CNC(=O)[C@@H](Cc3c[nH]c4ccccc34)NC(=O)Nc3ccc([N+](=O)[O-])cc3)CCCCC2)nc1
- EC50 [5]: 23 nM

Molecule: COc1cccc(-c2csc(=O)n2CC(=O)Nc2ccc(Br)cc2)c1
- EC50 ([4]; hl-60): 230 nM
- EC50 ([5]; hl-60): 280 nM

Molecule: O=C(CN1CCN(c2ccc(Cl)cc2)CC1)Nc1ccc(Br)cc1
- EC50 [2]: 2100 nM

Molecule: Cc1ccc(NC(=O)N[C@@H]2CCCN(c3ccc(-c4ccccc4C(N)=O)cc3)C2=O)cc1
- EC50 [6]: < 5 nM

Molecule: O=C(Nc1ccc(Cl)cc1F)N[C@@H]1CCN(c2ccc(-c3ccccc3F)c(F)c2F)C1=O
- Ratio EC50 [7]: 12

Molecule: CS(=N)(=O)c1ccccc1-c1ccc(N2CC[C@@H](NC(=O)Nc3ccc(Cl)cc3F)C2=O)c(F)c1F (some centres undefined)
- Ratio EC50 [7]: 82

Molecule: COc1cc(F)c(-c2c(NC(=O)c3ccc(OC(F)F)cc3)c(=O)n(-c3cccc(-n4ccc(C)n4)n3)n2C)c(F)c1
- Ratio EC50 [7]: 1

Molecule: COc1cc(F)c(-c2c(NC(=O)c3ccc(OC(F)F)cc3)c(=O)n(-c3ccccc3)n2C)c(F)c1
- Ratio EC50 [7]: 200

Molecule: COC(=O)c1cccc(-n2c(=O)c(NC(=O)c3ccc(OC(F)F)cc3)c(-c3c(F)cc(OC)cc3F)n2C)c1
- Ratio EC50 [7]: 1

Molecule: CP(C)(=O)c1ccccc1-c1ccc(N2CC[C@@H](NC(=O)Nc3ccc(Cl)cc3F)C2=O)c(F)c1F
- Ratio EC50 [7]: 490

Molecule: Cc1ccc(C2(NC(=O)[C@@H]3C4CCC([C@H]3C(=O)NCCCCN3CCCC3)C43CC3)CC2)cc1 (some centres undefined)
- EC50 [2]: 4 nM

Molecule: CCP(=O)(CC)c1ccccc1-c1ccc(N2CC[C@@H](NC(=O)Nc3ccc(Cl)cc3F)C2=O)c(F)c1F
- Ratio EC50 [7]: 350

Molecule: CCC(Nc1ccc(OC)cc1)C(=O)N/N=C(C)/C=C/c1ccccc1 (centres undefined)
- EC50 [2]: 2600 nM

Molecule: Cc1ccc(NC(=O)N[C@H]2CCCN(c3ccc(-c4ccccc4C(N)=O)cc3)C2=O)cc1
- EC50 [6]: 40 nM

Molecule: O=C(Nc1ccc(Br)nc1)[C@@H]1C2CCC([C@H]1C(=O)OCCC1CCNCC1)C21CC1 (some centres undefined)
- EC50 [2]: 0.4 nM

Molecule: CSc1ccc(NC(=O)Nc2ccc3c(c2)C(=O)N(CCCN)C(C)C3)cc1 (centres undefined)
- EC50 [12]: 15 nM

Molecule: COc1ccc(NC(=O)CSc2nc3cc(OC)ccc3[nH]2)cc1
- EC50 [3]: 3700 nM
- EC50 [2]: 15 nM

Molecule: CCCc1cn(-c2cccc(OC)c2)c(=O)n(CC(=O)Nc2ccc(Br)cc2)c1=O
- EC50 [4]: 2400 nM
- EC50 [5]: 3300 nM

Molecule: COc1ccc(C2(CNC(=O)[C@H](Cc3c[nH]c4ccccc34)NC(=O)Nc3ccc([N+](=O)[O-])cc3)CCCCC2)nc1
- EC50 [5]: 4100 nM

Molecule: COc1ccc(C2(CNC(=O)[C@](C)(Cc3c[nH]c4ccccc34)NC(=O)Nc3ccc([N+](=O)[O-])cc3)CCCCC2)nc1
- EC50 [5]: 300 nM

Molecule: O=C(O)[C@@H]1C2CCC([C@@H]1C(=O)Nc1ccc(Br)cc1)C21CC1 (some centres undefined)
- EC50 [12]: 280 nM

Molecule: C[C@@H]1CC(c2ccccc2)=NN(CC(=O)Nc2ccc(Br)cc2)C1=O
- EC50 [4]: 10000 nM
- EC50 [5]: 24000 nM

Molecule: CC(=O)CCCCc1nc(NC(=O)OCc2ccccc2C)co1
- EC50 [2]: 0.3 nM

Molecule: COc1cccc(-n2c(=O)c(NC(=O)c3ccc(OC(F)F)cc3)c(-c3c(F)cc(OC)cc3F)n2C)c1
- Ratio EC50 [7]: 0.6

Molecule: CC(C)c1c(NC(=O)Nc2ccc(Cl)cc2)c(=O)n(-c2ccccc2)n1C
- EC50 [12]: 890 nM
- EC50 [10]: 350 nM

Molecule: CS(=O)(=O)Nc1ccccc1-c1ccc(N2CC[C@@H](NC(=O)Nc3ccc(Cl)cc3F)C2=O)c(F)c1F
- Ratio EC50 [7]: 340
